Values of other authors, collected in US20110123575A1, “MODIFIED RELEASE NIACIN FORMULATIONS” (DR. REDDY'S LABORATORIES LTD., priority 2008, published 2011).

Details: white, crystalline powder

solubility in water: very soluble in water
SMILES: O=C(O)c1cccnc1 [Niacin, 3-pyridinecarboxylic acid]
